Data from patent publication US11185527B2, “Methods and compositions relating to steroid hormone receptor-dependent cancers” (Wayne State University, priority 2017, dated 2021).

Experiments:
[1] = test system: ARE-dependent promoter activation by AR; experiment: Counter screening assay: ARE-luciferase reporter in recombinant HeLa cells expressing AR; assay type: cell-based, human; settings: testosterone-treated recombinant HeLa cells
Source text: FIG. 6B is a schematic diagram of the reporter system for the counter screening assay. Recombinant HeLa cells used in this assay are identical to the primary screening cells except for the absence of Gal4-ELK1 and substitution of the Gal4 elements in the promoter with a canonical ARE. In this case, testosterone causes cytosolic AR to translocate to the nucleus and bind to the ARE in the promoter resulting in activation of the luciferase reporter.
The cells generated for counter screening, are HeLa cells stably transduced with a lentiviral plasmid construct containing a minimal promoter-luciferase reporter and an upstream androgen response element (ARE) sequence. These HeLa cells were also transduced with a lentiviral expression plasmid encoding the full-length AR. These lentiviral constructs were made as follows. Custom synthesized PCR primers were used to amplify and clone the ARE sequence from a pG5luc plasmid construct containing an ARE sequence element into the pGreenFire1 ™-mCMV-EF1-Neo (Plasmid) at SpeI (upstream) and BamHI (downstream) sites. pG5luc Vector is well known and the complete sequence has NCBI accession #AF264724. The ARE containing pG5luc plasmid is described in detail in Patki et al., 2013, J Biol Chem, 288:11047-11065. The lentiviral vector expressing ARE-luciferase reporter was then packaged in lentivirus and parental HeLa cells were infected as described below under the heading “Lentivirus-mediated-Transduction.” After 72h of infection, 400 ug/mL of Geneticin was added to the culture medium to select for the transduced cells. These cells were then infected with the lentivirus containing the full length AR expression plasmid described above. After 72h of infection, 2 ug/mL of Puromycin was added to the culture medium to select for the transduced cells. Clonal cells harboring both the ARE-promoter-luciferase reporter and also stably expressing AR were then isolated using cloning cylinders as described above. The selected clones were further expanded and then tested for luciferase induction by testosterone. The clone that gave the greatest luciferase signal to noise ratio in response to testosterone treatment was then chosen for use in the counter screening assay for high throughput small molecule screening. All of the plasmid constructs generated above were sequenced to verify DNA sequences before, the constructs were used.
For high throughput screening, recombinant primary screening cells were first depleted of hormone by growing them for 24h in medium in which the serum used was heat-inactivated and charcoal-stripped. The cells were then plated in 384-well white flat bottom plates (5,000 cells/well) (Corning Product #3570) using a Multidrop (Thermo Fisher Scientific, Waltham, Mass.). […]

[2] = test system: HeLa (cervical cancer cells), AR-negative; experiment: Cell monolayer growth assay (MTT); assay type: cell-based
Description: FIG. 12B is a graph showing the effect of KCI807 on in vitro growth of AR-negative cell line HeLa cells measured by the MTT assay. All values were plotted relative to the Day zero value. Cells were trypsinized and 3000-4000 cells/well were seeded in 96-well plates coated with poly-D-lysine. The cells were seeded in phenol red-free medium supplemented with 10% FBS, 100 units/ml penicillin, 100 μg/ml streptomycin, 2 mM L-glutamine mixture and sodium pyruvate (1 mM) for LNCaP cells and phenol red-free medium supplemented with 10% FBS, 100 units/ml penicillin, 100 μg/ml streptomycin and 2 mM L-glutamine mixture for VCaP, 22Rv1, DU145, HeLa, HEK293 and H1650 cells. The cells were grown at 37° C. in 5% CO2. Twenty four hours after seeding in the 96-well plates, the cells were treated with the indicated concentration of KCI807 or DMSO (vehicle). The cells were re-treated on Day 3 by removing half the volume of medium and replacing it with fresh treated medium. Cell viability was determined using the MTT assay from day zero until day five. MTT (10 μL, 5 mg/mL) was added to each well and incubated for 2h at 37° C. The formazan crystal sediments were dissolved in 100 μL of DMSO, and the absorbance at 570 nm was measured using the BioTek Synergy 2 Microplate Reader (BioTek, Winooski, Vt.). The assay was conducted in sextuplicate wells and values were normalized to day zero.

[3] = test system: BT474 cells; experiment: Breast cancer cell growth, MTT assay; assay type: cell-based
Description: (§1) Twenty four hours after plating the cells, they were treated with the indicated concentrations of the compound.

[4] = test system: MCF-7 cells; experiment: Breast cancer cell growth, MTT assay; assay type: cell-based
Description: as §1

[5] = test system: T47D cells; experiment: Breast cancer cell growth, MTT assay; assay type: cell-based
Description: as §1

[6] = mouse, in vivo
[7] = test system: 22Rv1 human CRPC xenograft; experiment: 22Rv1 CRPC tumor xenograft in male SCID mice, tumor growth; settings: KCI807 IP 250-300 mg/kg every other day; enzalutamide PO 50-60 mg/Kg daily; from day 3
[8] = Body weight and condition of mice in the PDX-PR011 xenograft study; settings: for % body weight lost/gained: PDX-PR011 study
[9] = target: binding of AR to ELK1 (Homo sapiens, UniProt P10275); experiment: SPR competition: inhibition of binding of AR (analyte) to immobilized ELK1; settings: AR 200 nM as analyte
binding of AR to ELK1, sequence (P10275 whole entry): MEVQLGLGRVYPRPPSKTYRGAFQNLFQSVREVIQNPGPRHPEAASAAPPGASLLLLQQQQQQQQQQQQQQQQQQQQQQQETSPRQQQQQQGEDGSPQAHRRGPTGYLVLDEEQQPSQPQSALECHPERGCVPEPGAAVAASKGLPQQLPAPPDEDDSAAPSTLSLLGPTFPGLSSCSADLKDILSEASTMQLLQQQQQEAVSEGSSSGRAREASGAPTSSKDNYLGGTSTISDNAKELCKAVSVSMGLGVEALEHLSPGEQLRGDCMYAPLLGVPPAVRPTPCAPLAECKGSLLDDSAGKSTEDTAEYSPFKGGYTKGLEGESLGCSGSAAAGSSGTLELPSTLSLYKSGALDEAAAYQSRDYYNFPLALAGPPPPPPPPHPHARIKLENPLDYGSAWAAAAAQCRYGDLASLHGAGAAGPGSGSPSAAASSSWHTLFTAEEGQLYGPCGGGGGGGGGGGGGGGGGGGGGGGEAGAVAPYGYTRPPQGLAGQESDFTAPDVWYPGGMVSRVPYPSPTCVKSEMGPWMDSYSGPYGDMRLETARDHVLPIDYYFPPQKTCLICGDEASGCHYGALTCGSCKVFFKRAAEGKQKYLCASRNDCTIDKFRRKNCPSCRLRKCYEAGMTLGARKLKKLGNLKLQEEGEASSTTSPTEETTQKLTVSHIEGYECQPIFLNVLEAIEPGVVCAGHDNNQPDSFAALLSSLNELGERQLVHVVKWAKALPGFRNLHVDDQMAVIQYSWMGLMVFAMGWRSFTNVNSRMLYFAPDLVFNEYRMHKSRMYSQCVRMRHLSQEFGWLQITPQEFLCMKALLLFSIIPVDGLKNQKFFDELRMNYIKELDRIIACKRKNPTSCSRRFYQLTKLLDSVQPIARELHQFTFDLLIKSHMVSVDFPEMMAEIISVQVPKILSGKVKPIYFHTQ

SMILES: CNC(=O)c1ccc(N2C(=S)N(c3ccc(C#N)c(C(F)(F)F)c3)C(=O)C2(C)C)cc1F [enzalutamide]
- inhibition of ARE-dependent promoter activation by AR (in words) [1]: completely suppressed the signal

SMILES: O=c1cc(-c2cccc(O)c2)oc2cccc(O)c12 [KCI807, 5,3′-dihydroxyflavone]
- growth of HeLa cells [2]: did not appreciably affect the growth
- growth of BT474 cells [3]: growth inhibitory
- growth of MCF-7 cells [4]: growth inhibitory
- growth of T47D cells [5]: growth inhibitory
- symptoms during the study, 22Rv1 xenograft [6]: asymptomatic
- weight loss (in words), 22Rv1 xenograft [6]: did not show appreciable weight loss
- tumor growth inhibition, 22Rv1 xenograft [7]: inhibited
- % body weight lost/gained ([8]; Day 1 after tumor implant): 0%
- % body weight lost/gained ([8]; Day 2 after tumor implant): −3.8%
- % body weight lost/gained ([8]; Day 3 after tumor implant): −4.6%
- % body weight lost/gained ([8]; Day 4 after tumor implant): −2.3%
- % body weight lost/gained ([8]; Day 5 after tumor implant): −2.3%
- % body weight lost/gained ([8]; Day 6 after tumor implant): −1.5%
- % body weight lost/gained ([8]; Day 7 after tumor implant): 0%
- % body weight lost/gained ([8]; Day 8 after tumor implant): −1.5%
- % body weight lost/gained ([8]; Day 9 after tumor implant): +0.8%
- % body weight lost/gained ([8]; Day 10 after tumor implant): +0.8%
- % body weight lost/gained ([8]; Day 11 after tumor implant): +1.5%
- % body weight lost/gained ([8]; Day 12 after tumor implant): +3.1%
- symptoms during the study, PDX-PR011 xenograft ([8]; mouse, in vivo): asymptomatic
- weight loss (in words), PDX-PR011 xenograft ([8]; mouse, in vivo): did not show appreciable weight loss
- inhibition of binding of AR to immobilized ELK1 [9]: blocked binding
